{"source": "paper PMC6934184", "about": "“Selective DNA-PKcs inhibition extends the therapeutic index of localized radiotherapy and chemotherapy” (The Journal of Clinical Investigation, 2019)", "target": "T1, IGF1R (Homo sapiens, UniProt P08069)", "T1 construct": "purchased Thermo Fisher Scientific (Life Technologies) SelectScreen", "T1 sequence (P08069 31-1367)": "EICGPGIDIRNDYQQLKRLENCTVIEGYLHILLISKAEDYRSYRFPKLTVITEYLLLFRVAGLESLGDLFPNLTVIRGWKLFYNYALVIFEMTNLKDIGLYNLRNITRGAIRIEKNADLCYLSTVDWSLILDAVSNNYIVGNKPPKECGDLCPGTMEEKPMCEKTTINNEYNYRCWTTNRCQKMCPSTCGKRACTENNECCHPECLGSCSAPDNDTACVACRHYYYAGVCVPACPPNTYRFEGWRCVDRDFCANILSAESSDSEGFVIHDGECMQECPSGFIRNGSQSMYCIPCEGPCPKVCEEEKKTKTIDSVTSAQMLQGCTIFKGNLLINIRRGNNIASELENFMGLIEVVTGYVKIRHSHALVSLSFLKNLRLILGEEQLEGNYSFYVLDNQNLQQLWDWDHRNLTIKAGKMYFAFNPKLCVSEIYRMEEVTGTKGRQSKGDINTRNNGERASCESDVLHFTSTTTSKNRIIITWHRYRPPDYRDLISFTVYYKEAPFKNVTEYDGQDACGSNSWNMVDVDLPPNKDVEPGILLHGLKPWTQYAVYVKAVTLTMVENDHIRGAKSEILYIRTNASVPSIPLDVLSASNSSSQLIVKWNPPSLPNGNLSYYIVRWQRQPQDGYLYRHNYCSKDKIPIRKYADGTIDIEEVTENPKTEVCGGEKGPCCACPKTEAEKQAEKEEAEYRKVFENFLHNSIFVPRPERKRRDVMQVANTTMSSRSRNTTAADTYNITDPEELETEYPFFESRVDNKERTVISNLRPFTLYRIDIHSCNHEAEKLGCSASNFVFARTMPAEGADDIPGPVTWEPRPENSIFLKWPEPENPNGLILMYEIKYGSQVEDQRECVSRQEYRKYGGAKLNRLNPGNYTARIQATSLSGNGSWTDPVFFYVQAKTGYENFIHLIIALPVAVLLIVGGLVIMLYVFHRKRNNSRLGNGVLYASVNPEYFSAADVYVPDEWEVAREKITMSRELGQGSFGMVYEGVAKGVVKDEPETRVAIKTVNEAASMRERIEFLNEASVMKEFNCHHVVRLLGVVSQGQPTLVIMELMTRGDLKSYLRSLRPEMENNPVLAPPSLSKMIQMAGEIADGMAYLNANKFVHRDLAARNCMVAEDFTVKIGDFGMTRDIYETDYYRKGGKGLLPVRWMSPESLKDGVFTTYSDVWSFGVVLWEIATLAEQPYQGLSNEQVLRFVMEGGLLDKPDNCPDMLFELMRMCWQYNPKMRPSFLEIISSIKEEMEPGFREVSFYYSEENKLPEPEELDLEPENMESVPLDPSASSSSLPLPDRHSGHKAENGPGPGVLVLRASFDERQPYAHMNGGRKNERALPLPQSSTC", "experiment": "SelectScreen Z'LYTE", "assay_type": "biochemical", "in_short": "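SelectScreen broad panel; activity (Z'LYTE, Adapta) plus binding formats. ATP: Km app for CSF1R Z'LYTE; 10 for CAMK1 Adapta. Readout = % per kinase.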", "data": [{"smiles": "CN(C(=O)CN1CCOCC1)c1ccc2sc3c(-c4cccc5c(=O)cc(N6CC7CCC(C6)O7)oc45)cccc3c2c1", "note": "[NU5455]", "values": [{"measurement": "inhibition at 1 µM", "value": 9.7, "unit": "%"}]}]}
